Measured values taken from PubChem BioAssay AID328 (DTP/NCI, 2004).
“And” between values parts separate entries of the source, which are not always exact repeats. Equal values may be shown once. Toxic doses and inconclusive results are not listed.

System: BDF1 mice, P388 leukemia ip, median survival T/C
Assay: NCI In Vivo Anticancer Drug Screen. Data for tumor model P388 Leukemia (intraperitoneal) in B6D2F1 (BDF1) mice
Conditions: endpoint: median survival time, higher = longer survival
Procedure, shortened: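 Mice carrying the transplantable tumour receive compound or vehicle. Survival is followed in each arm, and the treated measure is divided by the vehicle measure.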

CC12CCC3C(CCC4=CC(O)CCC43C=O)C1(O)CCC2c1ccc(=O)oc1 (configuration not stated)
T/C (dose: 0.11 mg/kg/injection, schedule: Q01DX009 (ip), vehicle: saline + alcohol): 100 % of control | T/C (dose: 0.33 mg/kg/injection, schedule: Q01DX009 (ip), vehicle: saline + alcohol): 95 % of control | T/C (dose: 1.0 mg/kg/injection, schedule: Q01DX009 (ip), vehicle: saline + alcohol): 95 % of control | T/C (dose: 3.0 mg/kg/injection, schedule: Q01DX010 (ip), vehicle: carboxymethylcellulose (CMC)): 95 % of control

CN(C)N=Nc1ccccc1Cl
T/C (dose: 25.0 mg/kg/injection, schedule: Q01DX009 (ip), vehicle: saline with Tween-80): 119 % of control | T/C (dose: 100.0 mg/kg/injection, schedule: Q01DX009 (ip), vehicle: saline with Tween-80): 157 % of control

C[CH2][Pb]([CH2]C)([CH2]C)[O][As](=O)(O)c1ccc(N)cc1
T/C (dose: 1.5 mg/kg/injection, schedule: Q01DX009 (ip), vehicle: saline): 107 % of control | T/C (dose: 2.0 mg/kg/injection, schedule: Q01DX009 (ip), vehicle: saline): 111 % of control | T/C (dose: 3.0 mg/kg/injection, schedule: Q01DX009 (ip), vehicle: saline): 103 % of control | T/C (dose: 4.5 mg/kg/injection, schedule: Q01DX009 (ip), vehicle: saline): 95 % of control

COc1cccc2c1C(=O)c1c(O)c3c(c(O)c1C2=O)C[C@@](O)(C(=O)CO)C[C@@H]3OC1CC(NC(=S)Nc2ccc3ccccc3c2)C(O)C(C)O1 (some centres not stated)
T/C (dose: 1.56 mg/kg/injection, schedule: Q01DX009 (ip), vehicle: saline): 95 % of control | T/C (dose: 3.12 mg/kg/injection, schedule: Q01DX009 (ip), vehicle: saline): 86 % of control | T/C (dose: 6.25 mg/kg/injection, schedule: Q01DX009 (ip), vehicle: saline): 94 % of control | T/C (dose: 25.0 mg/kg/injection, schedule: Q01DX009 (ip), vehicle: saline): 99 % of control and 107 % of control | T/C (dose: 50.0 mg/kg/injection, schedule: Q01DX009 (ip), vehicle: saline): 107 % of control | T/C (dose: 100.0 mg/kg/injection, schedule: Q01DX009 (ip), vehicle: saline): 96 % of control

NC(=Nc1ccc(Cl)cc1)/N=C(/N)N1CCN(/C(N)=N/C(N)=Nc2ccc(Cl)cc2)CC1
T/C (dose: 12.5 mg/kg/injection, schedule: Q01DX009 (ip), vehicle: saline): 120 % of control | T/C (dose: 16.5 mg/kg/injection, schedule: Q01DX009 (ip), vehicle: saline): 116 % of control | T/C (dose: 25.0 mg/kg/injection, schedule: Q01DX001 (ip), vehicle: saline): 104 % of control | T/C (dose: 37.5 mg/kg/injection, schedule: Q01DX009 (ip), vehicle: saline): 150 % of control | T/C (dose: 50.0 mg/kg/injection, schedule: Q01DX001 (ip), vehicle: saline): 113 % of control | T/C (dose: 50.0 mg/kg/injection, schedule: Q04DX003 (ip), vehicle: saline): 100 % of control | T/C (dose: 100.0 mg/kg/injection, schedule: Q01DX001 (ip), vehicle: saline): 109 % of control | T/C (dose: 100.0 mg/kg/injection, schedule: Q04DX003 (ip), vehicle: saline): 115 % of control | T/C (dose: 150.0 mg/kg/injection, schedule: Q01DX001 (ip), vehicle: Klucel (hydroxypropylcellulose) (HPC)): 116 % of control

NC(CSCc1ccc(N(CCCl)CCCl)cc1)C(=O)O (configuration not stated)
T/C (dose: 1.2 mg/kg/injection, schedule: Q04DX003 (ip), vehicle: Klucel (hydroxypropylcellulose) (HPC)): 95 % of control | T/C (dose: 2.6 mg/kg/injection, schedule: Q04DX003 (ip), vehicle: Klucel (hydroxypropylcellulose) (HPC)): 154 % of control | T/C (dose: 4.0 mg/kg/injection, schedule: Q01DX009 (ip), vehicle: saline with Tween-80): 183 % of control | T/C (dose: 6.0 mg/kg/injection, schedule: Q01DX009 (ip), vehicle: saline with Tween-80): 206 % of control | T/C (dose: 6.0 mg/kg/injection, schedule: Q04DX003 (ip), vehicle: Klucel (hydroxypropylcellulose) (HPC)): 154 % of control | T/C (dose: 9.0 mg/kg/injection, schedule: Q01DX009 (ip), vehicle: saline with Tween-80): 223 % of control | T/C (dose: 13.0 mg/kg/injection, schedule: Q04DX003 (ip), vehicle: Klucel (hydroxypropylcellulose) (HPC)): 190 % of control | T/C (dose: 20.0 mg/kg/injection, schedule: Q04DX003 (ip), vehicle: Klucel (hydroxypropylcellulose) (HPC)): 204 % of control | T/C (dose: 22.0 mg/kg/injection, schedule: Q01DX009 (ip), vehicle: Klucel (hydroxypropylcellulose) (HPC)): 272 % of control | T/C (dose: 30.0 mg/kg/injection, schedule: Q04DX003 (ip), vehicle: Klucel (hydroxypropylcellulose) (HPC)): 238 % of control and 272 % of control | T/C (dose: 33.0 mg/kg/injection, schedule: Q01DX009 (ip), vehicle: Klucel (hydroxypropylcellulose) (HPC)): 231 % of control | T/C (dose: 44.0 mg/kg/injection, schedule: Q04DX003 (ip), vehicle: Klucel (hydroxypropylcellulose) (HPC)): 238 % of control | T/C (dose: 50.0 mg/kg/injection, schedule: Q01DX009 (ip), vehicle: Klucel (hydroxypropylcellulose) (HPC)): 240 % of control and 250 % of control | T/C (dose: 67.0 mg/kg/injection, schedule: Q04DX003 (ip), vehicle: Klucel (hydroxypropylcellulose) (HPC)): 235 % of control and 223 % of control | T/C (dose: 75.0 mg/kg/injection, schedule: Q01DX009 (ip), vehicle: Klucel (hydroxypropylcellulose) (HPC)): 104 % of control | T/C (dose: 100.0 mg/kg/injection, schedule: Q04DX003 (ip), vehicle: Klucel (hydroxypropylcellulose) (HPC)): 220 % of control | T/C (dose: 150.0 mg/kg/injection, schedule: Q04DX003 (ip), vehicle: Klucel (hydroxypropylcellulose) (HPC)): 160 % of control
